Data on five compounds can be found in patent US10561612B2, “Powdered formulations of cromolyn sodium and ibuprofen” (AZTherapies, Inc., priority 2017, dated 2020).

Holding throughout (type): physicochemical
Series [1] is described as follows: Stability study under accelerated degradation conditions, related substances. To be noted: 40° C. and 75% relative humidity. As for the experimental part: A stability study was performed to determine the compatibility of the combined APIs under accelerated degradation conditions. Separate control samples of micronized cromolyn sodium (Sample A) and micronized ibuprofen (Sample B) were included in the study to be used as a comparator to the blend of Cromolyn/Ibuprofen (Sample C). The study was performed at 40° C. and 75% relative humidity. Measurements were taken at time 0, 1 month, 2 months, and 3 months.

Series [2] is described as follows: Gravimetric vapor sorption (GVS). To be noted: for weight gain upon exposure to moisture (moisture adsorbed on the surface): adsorption-desorption isotherm. As for the experimental part:
Ibuprofen was characterized to determine the parameters necessary to administer a therapeutically effective amount using an inhalation delivery system. The methodology included particle size determination (PSD); powdered x-ray crystallization diffraction (PXRD); and gravimetric vapor sorption (GVS).
(§1) Following micronization, Particle Size Distribution (PSD) analysis was performed by wet dispersion. […] FIGS. 8A and 8B illustrate the SEM imagery of micronized ibuprofen at a 10 μm scale for Batch 1 and Batch 2, respectively. FIGS. 9A and 9B illustrate the SEM imagery of micronized ibuprofen at a 2 μm scale for Batch 1 and Batch 2, respectively. FIGS. 10A and 10B illustrate the PXRD of micronized ibuprofen for Batch 1 and Batch 2, respectively. Table 7 contains the data for moisture content of micronized ibuprofen as determined by simultaneous thermal analyzer (STA), which tests both by DTA (Differential Temperature Analysis) and TG (Thermogravimetry). FIGS. 11A, 11B, and 11C illustrate the hygroscopicity as determined GVS for coarse ibuprofen (FIG. 11A), Batch 1 (FIG. 11B), and Batch 2 (FIG. 11C).

A short description of series [3]: Solubility and dispersibility seen in PSD by wet dispersion.
Excerpt: The micronization may be performed on coarse ibuprofen using an air-jet mill or similar apparatus, such as a grinder or a mill. Other methods to micronize the ibuprofen include milling, bashing, cutting, or crushing. For example, two batches were micronized with an air-jet mill using a feed gas pressure of about 45 psi and a grinding pressure of about 45 psi. One batch was micronized a second time under the same conditions. Optionally, the ibuprofen may be micronized more than once. After micronization, particle size distribution was performed on the micronized ibuprofen by wet dispersion.
as §1

A short description of series [4]: Moisture content by simultaneous thermal analyzer (STA). The following applies: for % Moisture content / Enthalpy change: by STA. The procedure: as §1
Series [5] can be described thus: Powdered x-ray diffraction (PXRD). The source says:
Ibuprofen was characterized to determine the parameters necessary to administer a therapeutically effective amount using an inhalation delivery system. The methodology included particle size determination (PSD); powdered x-ray crystallization diffraction (PXRD); and gravimetric vapor sorption (GVS). The methods determined that coarse ibuprofen was crystalline and non-hygroscopic. The results are summarized in Example 3.
(§2) Coarse ibuprofen was characterized using PSD, PXRD, and GVS. […]

The nature of series [6]: Particle size determination (PSD) of coarse ibuprofen. To be noted: for D10 / D50 / D90: Effect of Dispersant.
Excerpt: as §2
The average particle size determinations are illustrated in FIG. 5. The parameters and results were as follows: concentration 0.0406% Vol; span 1.493; uniformity 0.459; specific surface area 0.239 m^2/g; surface weighted mean […] 25.136 μm; and vol. weighted mean D[4,3] 62.020 μm.

[7] abbreviates: average particle size determination, FIG. 5.

Each structure is given as a SMILES string. Read-outs that look alike come from different tables or passages of the source. Some results are limits rather than exact numbers.

In the case of `O=C(O)c1cc(=O)c2c(OCC(O)COc3cccc4oc(C(=O)O)cc(=O)c34)cccc2o1` [Sample A, cromolyn sodium], the “Individual Related Substances ≥ 0.5%, cromolyn sodium” value in series [1] (1 month), in series [1] (2 months), in series [1] (3 months) and in series [1] (Initial T = 0) was 0.11% throughout. For the same compound, the “Total Impurities, cromolyn sodium” value in series [1] (1 month), in series [1] (2 months), in series [1] (3 months) and in series [1] (Initial T = 0) was 0.1% each time.

Take `CC(C)Cc1ccc(C(C)C(=O)O)cc1` (stereo not shown) [micronized ibuprofen, ibuprofen]: the “weight gain upon exposure to moisture (moisture adsorbed on the surface)” value (“weight gain upon exposure to moisture” for short) in series [2] (listed as Micronize ibuprofen) and in series [2] (listed as Micronized ibuprofen) was about 3% throughout. Further, the “Individual Related Substances ≥ 0.5%, RRT 0.93, ibuprofen” value in series [1] (1 month), in series [1] (2 months), in series [1] (3 months) and in series [1] (Initial T = 0) was 0.07% in each case. Further, the results for the “Individual Related Substances ≥ 0.5%, RRT 1.11, ibuprofen” value in series [1] (1 month), in series [1] (2 months) and in series [1] (3 months) were 0.05%, “<LOQ” and “<LOQ”, respectively. Also, the “Total Impurities, ibuprofen” value in series [1] (1 month), in series [1] (2 months), in series [1] (3 months) and in series [1] (Initial T = 0) was 0.1% each time. Besides, in series [3], the dispersibility in water result is listed as “not dispersible in water”. Further, the “solubility in organic solvents” value in series [3] was “highly soluble in organic solvents”. Moreover, in series [3], the “solubility in surfactant containing aqueous media” value is recorded as “soluble in different surfactants containing aqueous media even at low concentrations of the surfactant”.

Turning to `CC(C)Cc1ccc(C(C)C(=O)O)cc1` (stereo not shown) [Batch 2, ibuprofen], in series [4], the “% Moisture content” value is 1.14% and the Enthalpy change was 94.4 J/g.

Consider `CC(C)Cc1ccc(C(C)C(=O)O)cc1` (stereo not shown) [coarse ibuprofen, ibuprofen], for which, in series [4], the “% Moisture content” value was determined as 0.20% and the Enthalpy change was 131.0 J/g. Besides, the “Inference (crystalline or amorphous)” value in series [4] (from the enthalpy change) is “Crystalline”. Moreover, in series [2], the hygroscopicity result was “non-hygroscopic” and the “weight gain upon exposure to moisture” value was under 0.2%. In series [2] (listed as Ibuprofen), the “weight gain upon exposure to moisture” value is under 0.2%. Further, in series [2] (listed as ibuprofen), the “weight gain upon exposure to moisture” value is under 0.2% and the hygroscopicity result is “non-hydroscopic”. Further, the hygroscopicity result in series [2] (listed as Coarse ibuprofen) was “non-hydroscopic”. The crystallinity entry in series [5] was “crystalline”. Further, in series [6] (T (Day) 0), the D10 came out at 22.586 μm, the D50 was 57.693 μm and the D90 is 108.743 μm. For the same compound, in series [6] (T (Day) 1), the D10 was 22.401 μm, the D50 is 57.611 μm and the D90 worked out at 108.724 μm. For the same compound, in series [6] (setting [7]), the span is given as 1.493, the specific surface area is recorded as 0.239 m^2/g, the “surface weighted mean D[2,3]” value is recorded as 25.136 μm and the uniformity turned out to be 0.459. Moreover, the “vol. weighted mean D[4,3]” value in series [6] (setting [7]) is listed as 62.020 μm.

As to `CC(C)Cc1ccc(C(C)C(=O)O)cc1` (stereo not shown) [Batch 1, ibuprofen], in series [4], the “% Moisture content” value came to 1.19% and the Enthalpy change was found to be 120.5 J/g.
